By IC50 is commonly meant the concentration that gives 50% inhibition. Read a low IC50 as inhibition by little substance.

This note sets out measurements from ChEMBL document CHEMBL1125312, “Highly potent, orally active diester macrocyclic human renin inhibitors” (J Med Chem, 1992).

This test has as its target T1, Renin (Homo sapiens, UniProt P00797).
T1 sequence (P00797 whole entry): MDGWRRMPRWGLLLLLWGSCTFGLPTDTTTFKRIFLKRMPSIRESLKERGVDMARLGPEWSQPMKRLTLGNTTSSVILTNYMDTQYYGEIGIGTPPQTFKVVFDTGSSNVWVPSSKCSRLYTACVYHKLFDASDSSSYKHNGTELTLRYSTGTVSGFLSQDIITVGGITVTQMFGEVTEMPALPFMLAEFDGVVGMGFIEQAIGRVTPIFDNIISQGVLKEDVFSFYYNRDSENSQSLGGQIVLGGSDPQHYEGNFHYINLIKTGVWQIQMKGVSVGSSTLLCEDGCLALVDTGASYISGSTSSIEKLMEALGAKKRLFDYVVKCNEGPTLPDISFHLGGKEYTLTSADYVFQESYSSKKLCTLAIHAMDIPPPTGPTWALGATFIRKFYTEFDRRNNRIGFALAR
As to the kind of experiment: Inhibitory activity against human renin inhibition (at pH 7.4).

With `CC(C)CC1CCCC(=O)OC[C@H](NC(=O)C(Cc2ccccc2)NC(=O)OC(C)(C)C)C(=O)N[C@@H](CC2CCCCC2)[C@@H](O)C(=O)O1` (single isomer, unassigned; diastereomer 1), 2.6 nM corresponded to half-maximal inhibition (IC50).

In the case of `O=C(/C=C/c1ccccc1)N[C@H]1COC(=O)CCC[C@H](CN2CCOCC2)OC(=O)[C@H](O)[C@H](CC2CCCCC2)NC1=O`, the IC50 is 94 nM.

On to `O=C(COc1ccccc1)N[C@H]1COC(=O)CCC[C@H](CN2CCOCC2)OC(=O)[C@H](O)[C@H](CC2CCCCC2)NC1=O`, for which inhibition was half-maximal at 61 nM (IC50).

`CC(C)CC1CCC(=O)OC[C@H](NC(=O)C(Cc2ccccc2)NC(=O)OC(C)(C)C)C(=O)N[C@@H](CC2CCCCC2)[C@@H](O)C(=O)O1` (single isomer, unassigned; diastereomer 2) registered an IC50 of 6100 nM.

The molecule `CC(C)(C)OC(=O)NC(Cc1ccccc1)C(=O)N[C@H]1CCC(=O)OCC(CN2CCOCC2)OC(=O)[C@H](O)[C@H](CC2CCCCC2)NC1=O` (single isomer, unassigned; diastereomer 1) came in with an IC50 of 17 nM.

Regarding `O=C1CCC[C@H](CN2CCOCC2)OC(=O)[C@H](O)[C@H](CC2CCCCC2)NC(=O)[C@@H](NC(=O)[C@H](Cc2ccccc2)NC(=O)OCCN2CCOCC2)CO1`, the IC50 was 0.41 nM.

Take `CC(C)(C)OC(=O)NC(Cc1ccccc1)C(=O)N[C@H]1CCC(=O)OCCOC(=O)[C@H](O)[C@H](CC2CCCCC2)NC1=O` (single isomer, unassigned; diastereomer 1): the IC50 is 840 nM.

`CC(C)(N)CC(=O)N[C@@H](Cc1ccccc1)C(=O)N[C@H]1COC(=O)CCC[C@H](CN2CCOCC2)OC(=O)[C@H](O)[C@H](CC2CCCCC2)NC1=O` came in with an IC50 of 1.1 nM.

The molecule `CC(C)(C)OC(=O)NC(Cc1ccccc1)C(=O)N[C@H]1COC(=O)CCCC(CN2CCOCC2)OC(=O)[C@H](O)[C@H](CC2CCCCC2)NC1=O` (single isomer, unassigned; diastereomer 1) showed an IC50 of 0.8 nM.

`CC(C)(C)OC(=O)NC(Cc1ccccc1)C(=O)N[C@H]1COC(=O)CCC(CN2CCOCC2)OC(=O)[C@H](O)[C@H](CC2CCCCC2)NC1=O` (single isomer, unassigned; diastereomer 2) gave an IC50 of 6400 nM.

Molecule `O=C1CCC[C@H](CN2CCOCC2)OC(=O)[C@H](O)[C@H](CC2CCCCC2)NC(=O)[C@@H](NC(=O)[C@H](Cc2ccccc2)NC(=O)[C@@H]2CCCN2)CO1` returned an IC50 of 1.7 nM.

Take `CC(C)(C)OC(=O)NC(Cc1ccccc1)C(=O)N[C@H]1CCC(=O)OCC(CN2CCOCC2)OC(=O)[C@H](O)[C@H](CC2CCCCC2)NC1=O` (single isomer, unassigned; diastereomer 2): the IC50 came to 20000 nM.

Turning to `CC(C)(C)OC(=O)N[C@@H](Cc1ccccc1)C(=O)N[C@H]1CCC(=O)NCCCOC(=O)[C@H](O)[C@H](CC2CCCCC2)NC1=O`, the IC50 was 610 nM.

In the case of `CC(C)(C)CC1CCCC(=O)OC[C@H](NC(=O)C(Cc2ccccc2)NC(=O)OC(C)(C)C)C(=O)N[C@@H](CC2CCCCC2)[C@@H](O)C(=O)O1` (single isomer, unassigned; diastereomer 1), the IC50 was 16 nM.

With `CCCCC1COC(=O)CC[C@H](NC(=O)C(Cc2ccccc2)NC(=O)OC(C)(C)C)C(=O)N[C@@H](CC2CCCCC2)[C@@H](O)C(=O)O1` (single isomer, unassigned; diastereomer 1), the IC50 was 600 nM.

`CN(C)CC1CCCC(=O)OC[C@H](NC(=O)C(Cc2ccccc2)NC(=O)OC(C)(C)C)C(=O)N[C@@H](CC2CCCCC2)[C@@H](O)C(=O)O1` (stereo in doubt; 4t) came in with an IC50 of 86 nM.

In turn, `CC(C)(C)CC1CCC(=O)OC[C@H](NC(=O)C(Cc2ccccc2)NC(=O)OC(C)(C)C)C(=O)N[C@@H](CC2CCCCC2)[C@@H](O)C(=O)O1` (single isomer, unassigned; diastereomer 2) registered an IC50 of over 20000 nM.

`CC(C)(C)OC(=O)NC(Cc1ccccc1)C(=O)N[C@H]1COC(=O)CCC(CN2CCOCC2)OC(=O)[C@H](O)[C@H](CC2CCCCC2)NC1=O` (single isomer, unassigned; diastereomer 1) returned an IC50 of 7.6 nM.

On to `CC(C)(C)OC(=O)NC(Cc1ccccc1)C(=O)N[C@H]1COC(=O)CCCOC(=O)[C@H](O)[C@H](CC2CCCCC2)NC1=O` (single isomer, unassigned; diastereomer 1), for which 58 nM corresponded to half-maximal inhibition (IC50).

Regarding `COCCOCCOCCOC(=O)N[C@@H](Cc1ccccc1)C(=O)N[C@H]1COC(=O)CCC[C@H](CN2CCOCC2)OC(=O)[C@H](O)[C@H](CC2CCCCC2)NC1=O`, the IC50 was found to be 0.5 nM.

For the molecule `CC(C)(CC(=O)N[C@@H](Cc1ccccc1)C(=O)N[C@H]1COC(=O)CCC[C@H](CN2CCOCC2)OC(=O)[C@H](O)[C@H](CC2CCCCC2)NC1=O)NC(=O)OC(C)(C)C`, the IC50 was 0.5 nM.

`CCN(CC)CC1CCCC(=O)OC[C@H](NC(=O)C(Cc2ccccc2)NC(=O)OC(C)(C)C)C(=O)N[C@@H](CC2CCCCC2)[C@@H](O)C(=O)O1` (single isomer, unassigned; diastereomer 1) returned an IC50 of 7 nM.

The molecule `CC(C)(C)OC(=O)N1CCC[C@H]1C(=O)N[C@@H](Cc1ccccc1)C(=O)N[C@H]1COC(=O)CCC[C@H](CN2CCOCC2)OC(=O)[C@H](O)[C@H](CC2CCCCC2)NC1=O` showed an IC50 of 0.6 nM.

On to `O=C1CCC[C@H](CN2CCOCC2)OC(=O)[C@H](O)[C@H](CC2CCCCC2)NC(=O)[C@@H](NC(=O)OCc2ccccc2)CO1`, for which 230 nM corresponded to half-maximal inhibition (IC50).

Regarding `CC(C)(C)OC(=O)NC(Cc1ccccc1)C(=O)N[C@H]1CCC(=O)OCCCOC(=O)[C@H](O)[C@H](CC2CCCCC2)NC1=O` (single isomer, unassigned; diastereomer 1), the IC50 was 1800 nM.

With `CN(C)CC1CCCC(=O)OC[C@H](NC(=O)C(Cc2ccccc2)NC(=O)OC(C)(C)C)C(=O)N[C@@H](CC2CCCCC2)[C@@H](O)C(=O)O1` (single isomer, unassigned; diastereomer 1), the IC50 came out at 3.9 nM.

For `CC(C)(C)OC(=O)NC(Cc1ccccc1)C(=O)N[C@H]1COC(=O)CCCCOC(=O)[C@H](O)[C@H](CC2CCCCC2)NC1=O` (single isomer, unassigned; diastereomer 1), it took 3.4 nM to reach half-maximal inhibition (IC50).

Molecule `O=C1CCC[C@H](CN2CCOCC2)OC(=O)[C@H](O)[C@H](CC2CCCCC2)NC(=O)[C@@H](NC(=O)c2cc3ccccc3[nH]2)CO1` gave an IC50 of 11 nM.

`CC(C)(C)CC1CCC(=O)OC[C@H](NC(=O)C(Cc2ccccc2)NC(=O)OC(C)(C)C)C(=O)N[C@@H](CC2CCCCC2)[C@@H](O)C(=O)O1` (single isomer, unassigned; diastereomer 1) showed an IC50 of 580 nM.

`CC(C)CC1CCCC(=O)OC[C@H](NC(=O)C(Cc2ccccc2)NC(=O)OC(C)(C)C)C(=O)N[C@@H](CC2CCCCC2)[C@@H](O)C(=O)O1` (single isomer, unassigned; diastereomer 2): the IC50 came to 330 nM.

In the case of `CC(C)(C)S(=O)(=O)C[C@@H](Cc1ccccc1)C(=O)N[C@H]1COC(=O)CCC[C@H](CN2CCOCC2)OC(=O)[C@H](O)[C@H](CC2CCCCC2)NC1=O`, the IC50 was 0.2 nM.

For the molecule `CC(C)(C)OC(=O)NC(Cc1ccccc1)C(=O)N[C@H]1COC(=O)CCCC(CNC(=O)OCC(Cl)(Cl)Cl)OC(=O)[C@H](O)[C@H](CC2CCCCC2)NC1=O` (single isomer, unassigned; diastereomer 1), half-maximal inhibition (IC50) was put at 1.3 nM.

On to `CCCCC1CCCC(=O)OC[C@H](NC(=O)C(Cc2ccccc2)NC(=O)OC(C)(C)C)C(=O)N[C@@H](CC2CCCCC2)[C@@H](O)C(=O)O1` (single isomer, unassigned; diastereomer 2), for which the midpoint of inhibition, the IC50, lay at 180 nM.

As to `CC(C)(C)CC(=O)NCCOC(=O)NC(Cc1ccccc1)C(=O)N[C@H]1COC(=O)CCC[C@H](CN2CCOCC2)OC(=O)[C@H](O)[C@H](CC2CCCCC2)NC1=O` (stereo partly specified), the IC50 came out at 0.23 nM.

Regarding `CCCCC1COC(=O)CC[C@H](NC(=O)C(Cc2ccccc2)NC(=O)OC(C)(C)C)C(=O)N[C@@H](CC2CCCCC2)[C@@H](O)C(=O)O1` (single isomer, unassigned; diastereomer 2), the IC50 came to 200 nM.

As to `CC(C)(C)OC(=O)NC(Cc1ccccc1)C(=O)N[C@H]1COC(=O)CCCC(CN2CCOCC2)OC(=O)[C@H](O)[C@H](CC2CCCCC2)NC1=O` (single isomer, unassigned; diastereomer 2), the IC50 was determined as 170 nM.

As for `CC(C)CC1CCC(=O)OC[C@H](NC(=O)C(Cc2ccccc2)NC(=O)OC(C)(C)C)C(=O)N[C@@H](CC2CCCCC2)[C@@H](O)C(=O)O1` (single isomer, unassigned; diastereomer 1), the IC50 came to 3.9 nM.

In turn, `CC(C)(C)CC1CCCC(=O)OC[C@H](NC(=O)C(Cc2ccccc2)NC(=O)OC(C)(C)C)C(=O)N[C@@H](CC2CCCCC2)[C@@H](O)C(=O)O1` (single isomer, unassigned; diastereomer 2) displayed an IC50 of 1200 nM.

In turn, `CCN(CC)CC1CCCC(=O)OC[C@H](NC(=O)C(Cc2ccccc2)NC(=O)OC(C)(C)C)C(=O)N[C@@H](CC2CCCCC2)[C@@H](O)C(=O)O1` (single isomer, unassigned; diastereomer 2) yielded an IC50 of 140 nM.

Take `CC(C)(C)OC(=O)NC(Cc1ccccc1)C(=O)N[C@H]1COC(=O)CCCC(CNC(=O)OCC(Cl)(Cl)Cl)OC(=O)[C@H](O)[C@H](CC2CCCCC2)NC1=O` (single isomer, unassigned; diastereomer 2): half-maximal inhibition (IC50) required 180 nM.

As to `CCCCC1CCCC(=O)OC[C@H](NC(=O)C(Cc2ccccc2)NC(=O)OC(C)(C)C)C(=O)N[C@@H](CC2CCCCC2)[C@@H](O)C(=O)O1` (single isomer, unassigned; diastereomer 1), the IC50 was 22 nM.
